{"source": "patent US7482318B2", "about": "“Protein kinase domain of the large subunit of herpes simplex type 2 ribonucleotide reductase (icp 10pk) has anti-apoptotic activity” (priority 2000, dated 2009)", "key": {"HEK293 cells": {"tested_on": "HEK293 cells", "test": "TUNEL assay of apoptosis inducers in HEK293 cells", "assay_type": "cell-based, human", "conditions": "24 hours with 250 nM STS or 300 nM D-Mann, ±SEM, three experiments", "procedure": "(§1) Vero (African green monkey kidney cells) were obtained from ATCC and grown in Minimum Essential Medium (MEM) with 10% fetal bovine serum (FBS) and antibiotics. HEK293 (human embryonic kidney) cells were grown in Dulbecco's Modified Eagle's Medium (DMEM) with 10% FBS, 1 mM sodium pyruvate, 0.1 mM non-essential amino acids, and antibiotics. The cell line JHLA1 was established from HEK293 cells by transfection with an ICP10 expression vector and clone selection with G418, and the cell line JHL15 was similarly constructed using a vector which expresses the transmembrane deleted mutant of ICP10, p139™, which is PK negative, as described (Smith et al. 1994, Virology, 200:598-612).\n(§2) Apoptosis was induced in HEI293 and JHLA1 cells using staurosporine (STS; Calbiochem, San Diego, Calif.) and D-manritol (D-Mann; Sigma, St. Louis, Mo.). […]\n(§3) In situ analysis of apoptosis was performed using In Situ Cell Death Detection Kit (Roche Molecular Biochemicals, Indianapolis, Ind.) according to the manufacturer's instructions. […] Coverslips were mounted in PBS/glycerol, and cells were analyzed by fluorescence microscopy. […] Coverslips were mounted in PBS/glycerol and analyzed by light microscopy. Apoptotic cells (characterized by a dark precipitate) and non-apoptotic cells (diffuse, light staining) were counted in at least five randomly chose microscopic fields (containing at least 250 cells). […]"}, "JHL15 cells": {"tested_on": "JHL15 cells", "test": "TUNEL assay of apoptosis inducers in JHL15 cells (express PK negative p139TM)", "assay_type": "cell-based, human", "conditions": "JHL15 cells (printed RHL15 for STS); 24 hours with 250 nM STS or 300 nM D-Mann; ±SEM", "procedure": "as §1, §2, §3"}, "JHLA1 cells": {"tested_on": "JHLA1 cells", "test": "TUNEL assay of apoptosis inducers in JHLA1 cells (express ICP10)", "assay_type": "cell-based, human", "conditions": "JHLA1 cells (printed JHLA15); 24 hours with 250 nM STS or 300 nM D-Mann; ±SEM", "procedure": "as §1, §2, §3"}, "chromosomal DNA": {"tested_on": "chromosomal DNA", "test": "DNA fragmentation assay (agarose gel DNA ladder)", "assay_type": "cell-based, human", "conditions": "24 hours post-treatment", "procedure": "(§4) Apoptosis was induced in HEI293 and JHLA1 cells using staurosporine (STS; Calbiochem, San Diego, Calif.) and D-manritol (D-Mann; Sigma, St. Louis, Mo.). Cells were plated in 6-well plates on glass coverslips or in flasks and allowed to grow for 24 hours at 37° C. in DMEM with 10% FBS, 1 mM sodium pyruvate, 0.1 mM non-essential amino acids, and antibiotics. At 24 hours after plating, media was removed by aspiration, and appropriate dilutions of apoptotic inducers (STS 250 nM, D-Mann 300 mM) were added to the cells for various times indicated in the text. All dilutions were made in cell growth media described above containing 1% FBS. At the indicated times after treatment, cells were processed for TUNEL or harvested for DNA extraction or Western blot assay.\nHEK293, JHLA1 and JHL15 cells treated or not treated with apoptotic inducers were collected by gentle scraping at 24 hours post-treatment/infection. DNA was extracted using Puregene DNA Isolation Kit (Gentra Systems, Minneapolis, Minn.) according to the manufacturer's instructions. After spectrophotometrical quantitation, 5-10 micrograms of DNA per samples was separated on a 1.5% agarose gel stained with 0.1 microgram/ml ethidium bromide. Fragmented DNA was visualized by exposure to UV light and photographed using a Polaroid MP-4 land camera.\nTo determine whether ICP10PK blocks DNA fragmentation induced by STS and D-Mann, treated cells were analyzed using a DNA fragmentation assay which detects degradation of chromosomal DNA into oligonucleosomal fragments."}, "[1]": {"tested_on": "procaspase-3 (caspase-3p32)", "test": "Western blot of inactive procaspase-3 (caspase-3p32), densitometric scanning", "assay_type": "cell-based, human", "procedure": "as §4\n(§5) Cells were collected by gentle scraping and centrifuged at 2,500 rpm for 5 minutes at 4° C. The dry pellet was stored at −80° C. until use. Cells were lysed with RIPA buffer (30 mM Tris-Hcl pH=7.4, […], 1% Nonidet P-40, 0/1% SDS, 0.5% sodium deoxycholate, 1 mM EDTA, 1 mM DTT, 2 mM MgCl2, 0.5 mM PMSF) supplemented with phosphatase and protease inhibitor cocktails (Sigma, St. Louis, Mo.) and sonicated for 1 minute at 25% output power using the Sonicator/Ultrasonic Processor (Misonix, Inc., Farmingdale, N.Y.). Total protein was determined by BCA (Pierce, Rockford, Ill.) and proteins were resolved by SDS-PAGE. Transfer of separated proteins to Schlecher and Schuell nitrocellulose membranes was performed overnight using an electroblotting apparatus. Non-specific binding was blocked by incubating blots for 1 hour at 37° C. in TN-T buffer (0.01 M Tris-Hcl pH=7.4, 0.15 M NaCl, 0.05% Tween 20) containing 1% bovine serum albumin (BSA). After washing with TN-T buffer, the blots were incubated for 2 hours at room temperature with the appropriate antibodies diluted in TN-T buffer containing 0.1% BSA. After three washes with TN-T buffer, the blots were incubated with Protein A-Peroxidase for 1 hour at room temperature. […]"}, "caspase-3p20": {"tested_on": "caspase-3p20", "test": "Immunohistochemistry for activated caspase-3 cleavage product (caspase-3p20) in HEK293, JHL15, JHLA1 cells", "assay_type": "cell-based, human", "conditions": "STS-treated, ±SEM", "description": "FIG. 3B is a graph depicting inhibition of caspase activation by ICP10PK. HEK93, JHL15, and JHLA1 cells treated with STS (as described in FIG. 3A) were stained with caspase3p20 antibody (specific for the activated caspase-3 which is the large fragment of the pro-enzyme), and cells in five randomly chosen microscopic fields were counted. Results are expressed as mean percentage of positive cells±SEM (*=p<0.01 vs. HEK294; +=p<0.01 vs. JHL15 by Student test).\nPrevious reports have shown that STS-induced cell death is a caspase-dependent process (Jacobson et al., 1996, J. Cell. Biol., 133:1041-1051). […] To determine whether ICP10PK inhibits cleavage of pro-caspase-3, a central determinant of many apoptotic processes, Western blot analysis was performed on cell lysates obtained from STS-treated cells. […] The densitometric units were equal to 0.7 for both STS-treated HEK293 and JHL15 cells and 1.0 and 1.1 for DMSO-treated HEK293 and JHL15 cells, respectively). The levels of caspase-3p32 were similar in STS-treated and untreated JHLA1 cells (FIG. 3A, lanes 5 and 6, respectively). In this case, the densitometric units were equal to 1.2 for both treatments."}, "PARP": {"tested_on": "PARP", "test": "Western blot of PARP cleavage", "assay_type": "cell-based, human", "conditions": "STS-treated", "procedure": "as §5, with “(BSA).” for “(BSA). After washing with TN-T buffer, the blots were incubated for 2 hours at room temperature with the appropriate antibodies diluted in TN-T buffer containing 0.1% BSA. After three washes with TN-T buffer, the blots were incubated with Protein A-Peroxidase for 1 hour at room temperature.”\nTo determine whether ICP10PK blocks PARP cleavage by caspase-3, a hallmark of caspase-3 dependent apoptosis, Western blot analysis using PARP antibody was performed on STS-treated HEK293, JHL15, and JHLA1 cells. A 116 kDa band consistent with the uncleaved PARP was detected in mock- and STS-treated cells."}, "[2]": {"tested_on": "primary hippocampal cultures", "assay_type": "cell-based, rat", "experimental": "Briefly, minced fetal hippocampi were incubated with 0.25% trypsin for 30 minutes at 36° C. followed by dissociation of neurons in MEM supplemented with 10% FBS, 10% horse serum, 2 mM glutamine, and 20 microgram/ml DNase II, using a sterile Pasteur pipette. Neurons were plated at approximately 750,000 cells per 35 mm dish on glass coverslips pre-coated with poly-L-lysine and incubated at 36° C., 10% CO2. At 24 hours, media was replaced with MEM supplemented with 10% horse serum and 2 mM glutamine, and the cultures were returned to a 36 degrees C., 10% CO2 incubator.\nIn situ analysis of apoptosis was performed using In Situ Cell Death Detection Kit (Roche Molecular Biochemicals, Indianapolis, Ind.) according to the manufacturer's instructions. Briefly, infected/treated or non-infected/non-treated cells were fixed with 4% paraformaldehyde (PFA) in PBS (pH=7.4) for 30 minutes at room temperature followed by permiabilization of cells in 0.1% Triton X-100 (in 0.1% sodium citrate) for 2 minutes on ice. DNA breaks were labeled by addition of terminal deoxynucleotidyl transferase (TdT) and nucleotide mixture (containing dUTP-fluorescein conjugated) and incubation for 60 minutes at 37° C. Coverslips were mounted in PBS/glycerol, and cells were analyzed by fluorescence microscopy. After extensive washes in PBS, cells were incubated for 30 minutes at 37° C. with an anti-fluorescein antibody conjugated with alkaline phosphatase (AP). Chromogenic reaction was carried out by adding AP substrate solution (NBT/BCIP in 0.1 M Tris-HCl pH=9.5, 0.05 M MCl2, 0.1M NaCl, and 1 mM levamisole) and incubation for 10 minutes at room temperature. Coverslips were mounted in PBS/glycerol and analyzed by light microscopy. Apoptotic cells (characterized by a dark precipitate) and non-apoptotic cells (diffuse, light staining) were counted in at least five randomly chose microscopic fields (containing at least 250 cells). The percentage of mock-infected neurons undergoing apoptosis (between 4 and 5%) was subtracted from each average.\nCells were infected with 10 PFU/cell of HSV-2 or ICP10deltaPK and apoptosis was determined by TUNEL at 16 and 24 hours p.i. A total of 200-300 cells were counted in five randomly chosen microscopic fields and the mean percentage of TUNEL-positive cells was determined."}, "P-MAPK1/2": {"tested_on": "P-MAPK1/2", "test": "Immunoblot of P-MAPK1/2 (MAPK activation) in hippocampal neurons", "assay_type": "cell-based, rat", "conditions": "20 micromoles U0126", "experimental": "Cells were lysed with RIPA buffer (30 mM Tris-Hcl pH=7.4, 0.15 mM NaCl, 1% Nonidet P-40, 0/1% SDS, 0.5% sodium deoxycholate, 1 mM EDTA, 1 mM DTT, 2 mM MgCl2, 0.5 mM PMSF) supplemented with phosphatase and protease inhibitor cocktails (Sigma, St. Louis, Mo.) and sonicated for 1 minute at 25% output power using the Sonicator/Ultrasonic Processor (Misonix, Inc., Farmingdale, N.Y.). Total protein was determined by BCA (Pierce, Rockford, Ill.) and proteins were resolved by SDS-PAGE. Transfer of separated proteins to Schlecher and Schuell nitrocellulose membranes was performed overnight using an electroblotting apparatus. Non-specific binding was blocked by incubating blots for 1 hour at 37° C. in TN-T buffer (0.01 M Tris-Hcl pH=7.4, 0.15 M NaCl, 0.05% Tween 20) containing 1% bovine serum albumin (BSA). After washing with TN-T buffer, the blots were incubated for 2 hours at room temperature with the appropriate antibodies diluted in TN-T buffer containing 0.1% BSA. After three washes with TN-T buffer, the blots were incubated with Protein A-Peroxidase for 1 hour at room temperature. […]\nCulture of hippocampal neurons were infected with HSV-2 or ICP10deltaPK at 10 PFU/cell and analyzed for MAPK activation by immunoblotting with antibodies specific for the unphosphorylated (MAPK) and phosphorylated (activated) MAPK species (P-MAPK1/2). […]"}}, "note": "Where two headings read alike, the source gives them in different places."}
{"smiles": "CN[C@@H]1C[C@H]2O[C@@](C)([C@@H]1OC)n1c3ccccc3c3c4c(c5c6ccccc6n2c5c31)C(=O)NC4", "note": "[STS, staurosporine]", "values": [{"measurement": "percentage of apoptotic (TUNEL-positive) cells", "setting": "HEK293 cells", "result": "71±12.4", "unit": "%"}, {"measurement": "percentage of apoptotic (TUNEL-positive) cells", "setting": "JHL15 cells", "result": "79±4.9", "unit": "%"}, {"measurement": "percentage of apoptotic (TUNEL-positive) cells", "setting": "JHLA1 cells", "result": "5.8 ± 2.1", "unit": "%"}, {"measurement": "DNA fragmentation (DNA ladder pattern)", "setting": "chromosomal DNA; HEK293 cells", "result": "exhibited a DNA ladder pattern characteristic of apoptosis"}, {"measurement": "DNA fragmentation (DNA ladder pattern)", "setting": "chromosomal DNA; JHLA1 cells", "result": "did not exhibit DNA fragmentation"}, {"measurement": "levels of caspase-3p32", "setting": "[1]; HEK293 cells, STS 250 nM (DMSO control 1.0)", "result": 0.7, "unit": "densitometric units"}, {"measurement": "levels of caspase-3p32", "setting": "[1]; JHL15 cells, STS 250 nM (DMSO control 1.1)", "result": 0.7, "unit": "densitometric units"}, {"measurement": "levels of caspase-3p32", "setting": "[1]; JHLA1 cells, STS 250 nM (untreated 1.2)", "result": 1.2, "unit": "densitometric units"}, {"measurement": "mean percentage of cells positive for caspase-3p20", "setting": "caspase-3p20; HEK293 cells", "result": "40.5±0.9", "unit": "%"}, {"measurement": "mean percentage of cells positive for caspase-3p20", "setting": "caspase-3p20; JHL15 cells", "result": "36.4±7.6", "unit": "%"}, {"measurement": "mean percentage of cells positive for caspase-3p20", "setting": "caspase-3p20; JHLA1 cells", "result": "9.3±0.1", "unit": "%"}, {"measurement": "85 kDa PARP cleavage product", "setting": "PARP; HEK293 cells", "result": "detected"}, {"measurement": "85 kDa PARP cleavage product", "setting": "PARP; JHL15 cells", "result": "detected"}]}
{"smiles": "OC[C@@H](O)[C@@H](O)[C@H](O)[C@H](O)CO", "note": "[D-Mann, D-mannitol]", "values": [{"measurement": "percentage of apoptotic (TUNEL-positive) cells", "setting": "HEK293 cells", "result": "79±7.4", "unit": "%"}, {"measurement": "percentage of apoptotic (TUNEL-positive) cells", "setting": "JHL15 cells", "result": "58±7", "unit": "%"}, {"measurement": "percentage of apoptotic (TUNEL-positive) cells", "setting": "JHLA1 cells", "result": "13±8", "unit": "%"}, {"measurement": "DNA fragmentation (DNA ladder pattern)", "setting": "chromosomal DNA; HEK293 cells", "result": "exhibited a DNA ladder pattern characteristic of apoptosis"}, {"measurement": "DNA fragmentation (DNA ladder pattern)", "setting": "chromosomal DNA; JHLA1 cells", "result": "did not exhibit DNA fragmentation"}]}
{"smiles": "O=c1cc(N2CCOCC2)oc2c(-c3ccccc3)cccc12", "note": "[LY294002]", "values": [{"measurement": "percentage of TUNEL-positive cells", "setting": "[2]; HSV-2 infected cultures, 100 micromolar LY294002", "result": "24.8±2.3"}, {"measurement": "percentage of TUNEL-positive cells", "setting": "[2]; mock-infected cultures, 100 micromolar LY294002 (non-treated 5±3)", "result": "72±4.5"}]}
{"smiles": "N#CC(=C(/N)Sc1ccccc1N)/C(C#N)=C(\\N)Sc1ccccc1N", "note": "[U0126]", "values": [{"measurement": "percentage of TUNEL-positive (apoptotic) cells", "setting": "[2]; HSV-2 infected cultures, 10 micromoles U0126", "result": "20±1.6", "unit": "%"}, {"measurement": "percentage of TUNEL-positive (apoptotic) cells", "setting": "[2]; HSV-2 infected cultures, 20 micromoles U0126", "result": "39.3±2.8", "unit": "%"}, {"measurement": "P-MAPK1/2 levels vs untreated HSV-2 infected cells", "setting": "P-MAPK1/2", "result": "significantly lower"}]}
